According to patent US8592175B2, “Nitroreductase enzymatic substrates” (bioMérieux, S.A., priority 2009, dated 2013):

Experiments:
Test in all cases: Color, fluorescence and growth of colonies on Columbia medium with nitroreductase substrate
Type in all cases: cell-based
[1] = system: Yersinia enterocolitica NCTC 11 176; parameters: key to Growth: NG: no growth; 0.5: low growth; 1: moderate growth; 2: good growth; key to Fluo.: fluorescence of the colonies / Col.: color of the colonies: —: no color/fluorescence; conditions: 40 mg substrate in 400 ml Columbia medium, 24 hours at 37° C.
Protocol: (§1) 40 mg of each of the substrates were dissolved in 4 ml of dimethylsulfoxide and added to 400 ml of previously autoclaved Columbia medium. The 5 media were distributed in Petri dishes 90 mm in diameter at the rate of 20 ml per dish. Seventeen strains of microorganisms obtained from collections and belonging to various species of bacteria and yeasts are inoculated as spots of about 10 000 colony forming units. The media are incubated for 24 hours at 37° C. and then the colonies formed are examined visually and under a UV lamp at 365 nm.

[2] = system: Staphylococcus epidermidis NCTC 11 047; parameters: key to Growth: NG: no growth; 0.5: low growth; 1: moderate growth; 2: good growth; key to Fluo.: fluorescence of the colonies / Col.: color of the colonies: —: no color/fluorescence; conditions: 40 mg substrate in 400 ml Columbia medium, 24 hours at 37° C.; for Col.: color of the colonies: examined visually
Protocol: as §1

[3] = system: Listeria monocytogenes NCTC 11 994; parameters: key to Growth: NG: no growth; 0.5: low growth; 1: moderate growth; 2: good growth; key to Fluo.: fluorescence of the colonies / Col.: color of the colonies: —: no color/fluorescence; conditions: 40 mg substrate in 400 ml Columbia medium, 24 hours at 37° C.
Protocol: as §1

[4] = system: Staphylococcus aureus NCTC 6 571; parameters: key to Growth: NG: no growth; 0.5: low growth; 1: moderate growth; 2: good growth; key to Fluo.: fluorescence of the colonies / Col.: color of the colonies: —: no color/fluorescence; conditions: 40 mg substrate in 400 ml Columbia medium, 24 hours at 37° C.; for Col.: color of the colonies: examined visually
Protocol: as §1

[5] = system: Providencia rettgeri NCTC 7 475; parameters: key to Growth: NG: no growth; 0.5: low growth; 1: moderate growth; 2: good growth; key to Fluo.: fluorescence of the colonies / Col.: color of the colonies: —: no color/fluorescence; conditions: 40 mg substrate in 400 ml Columbia medium, 24 hours at 37° C.; for Col.: color of the colonies: examined visually
Protocol: as §1

[6] = system: Streptococcus pyogenes NCTC 8 306; parameters: key to Growth: NG: no growth; 0.5: low growth; 1: moderate growth; 2: good growth; key to Fluo.: fluorescence of the colonies / Col.: color of the colonies: —: no color/fluorescence; conditions: 40 mg substrate in 400 ml Columbia medium, 24 hours at 37° C.; for Col.: color of the colonies: examined visually
Protocol: as §1

[7] = system: Staphylococcus aureus NCTC 11 939; parameters: key to Growth: NG: no growth; 0.5: low growth; 1: moderate growth; 2: good growth; key to Fluo.: fluorescence of the colonies / Col.: color of the colonies: —: no color/fluorescence; conditions: 40 mg substrate in 400 ml Columbia medium, 24 hours at 37° C.; for Col.: color of the colonies: examined visually
Protocol: as §1

[8] = system: Bacillus subtilis NCTC 9 372; parameters: key to Growth: NG: no growth; 0.5: low growth; 1: moderate growth; 2: good growth; key to Fluo.: fluorescence of the colonies / Col.: color of the colonies: —: no color/fluorescence; conditions: 40 mg substrate in 400 ml Columbia medium, 24 hours at 37° C.; for Col.: color of the colonies: examined visually
Protocol: as §1

[9] = system: Candida albicans ATCC 90 028; parameters: key to Growth: NG: no growth; 0.5: low growth; 1: moderate growth; 2: good growth; key to Fluo.: fluorescence of the colonies / Col.: color of the colonies: —: no color/fluorescence; conditions: 40 mg substrate in 400 ml Columbia medium, 24 hours at 37° C.; for Col.: color of the colonies: examined visually
Protocol: as §1

[10] = system: Enterococcus faecalis NCTC 775; parameters: key to Growth: NG: no growth; 0.5: low growth; 1: moderate growth; 2: good growth; key to Fluo.: fluorescence of the colonies / Col.: color of the colonies: —: no color/fluorescence; conditions: 40 mg substrate in 400 ml Columbia medium, 24 hours at 37° C.
Protocol: as §1

[11] = system: Pseudomonas aeruginosa NCTC 10 662; parameters: key to Growth: NG: no growth; 0.5: low growth; 1: moderate growth; 2: good growth; key to Fluo.: fluorescence of the colonies / Col.: color of the colonies: —: no color/fluorescence; conditions: 40 mg substrate in 400 ml Columbia medium, 24 hours at 37° C.
Protocol: as §1

[12] = system: Enterococcus faecium NCTC 7 171; parameters: key to Growth: NG: no growth; 0.5: low growth; 1: moderate growth; 2: good growth; key to Fluo.: fluorescence of the colonies / Col.: color of the colonies: —: no color/fluorescence; conditions: 40 mg substrate in 400 ml Columbia medium, 24 hours at 37° C.
Protocol: as §1

[13] = system: Candida glabrata NCPF 3 943; parameters: key to Growth: NG: no growth; 0.5: low growth; 1: moderate growth; 2: good growth; key to Fluo.: fluorescence of the colonies / Col.: color of the colonies: —: no color/fluorescence; conditions: 40 mg substrate in 400 ml Columbia medium, 24 hours at 37° C.; for Col.: color of the colonies: examined visually
Protocol: as §1

[14] = system: Salmonella typhimurium NCTC 74; parameters: key to Growth: NG: no growth; 0.5: low growth; 1: moderate growth; 2: good growth; key to Fluo.: fluorescence of the colonies / Col.: color of the colonies: —: no color/fluorescence; conditions: 40 mg substrate in 400 ml Columbia medium, 24 hours at 37° C.
Protocol: as §1

[15] = system: Enterobacter cloacae NCTC 11 936; parameters: key to Growth: NG: no growth; 0.5: low growth; 1: moderate growth; 2: good growth; conditions: 40 mg substrate in 400 ml Columbia medium, 24 hours at 37° C.; for Col.: color of the colonies: examined visually
Protocol: as §1

[16] = system: Escherichia coli NCTC 10 418; parameters: key to Growth: NG: no growth; 0.5: low growth; 1: moderate growth; 2: good growth; conditions: 40 mg substrate in 400 ml Columbia medium, 24 hours at 37° C.
Protocol: as §1

[17] = system: Serratia marcescens NCTC 10 211; parameters: key to Growth: NG: no growth; 0.5: low growth; 1: moderate growth; 2: good growth; conditions: 40 mg substrate in 400 ml Columbia medium, 24 hours at 37° C.
Protocol: as §1

## 2-(4′-nitrophenyl)butadienyl-N-methylquinolinium iodide [2NPBMQ^+I]
[1]
  Growth: 1
[2]
  Growth: 1
  Col.: color of the colonies: —
[3]
  Growth: 1
[4]
  Growth: NG
  Col.: color of the colonies: —
[5]
  Growth: 2
  Col.: color of the colonies: Orange
[6]
  Growth: 0.5
  Col.: color of the colonies: —
[7]
  Growth: NG
  Col.: color of the colonies: —
[8]
  Growth: 0.5
  Col.: color of the colonies: —
[9]
  Growth: NG
  Col.: color of the colonies: —
[10]
  Growth: 1
[11]
  Growth: 2
[11]; examined visually
  Col.: color of the colonies: Orange
[12]
  Growth: 1
[13]
  Growth: NG
  Col.: color of the colonies: —
[14]
  Growth: 1
[15]
  Growth: 2
  Col.: color of the colonies: Orange
[16]
  Growth: 2
[17]
  Growth: 2

## C[n+]1ccc(C=Cc2ccc([N+](=O)[O-])cc2)c2ccccc21.[I-] [4NSMQ^+I, 4-(4′-nitrostyryl)-N-methylquinolinium iodide]
[1]
  Growth: 1
[1]; UV lamp at 365 nm
  Fluo.: fluorescence of the colonies: —
[1]; examined visually
  Col.: color of the colonies: Rust
[2]
  Growth: 1
  Col.: color of the colonies: —
[2]; UV lamp at 365 nm
  Fluo.: fluorescence of the colonies: —
[3]
  Growth: 1
[3]; UV lamp at 365 nm
  Fluo.: fluorescence of the colonies: —
[3]; examined visually
  Col.: color of the colonies: Rust
[4]
  Growth: NG
  Col.: color of the colonies: —
[4]; UV lamp at 365 nm
  Fluo.: fluorescence of the colonies: —
[5]
  Growth: 2
  Col.: color of the colonies: Rust e
[5]; UV lamp at 365 nm
  Fluo.: fluorescence of the colonies: —
[6]
  Growth: NG
  Col.: color of the colonies: —
[6]; UV lamp at 365 nm
  Fluo.: fluorescence of the colonies: —
[7]
  Growth: NG
  Col.: color of the colonies: —
[7]; UV lamp at 365 nm
  Fluo.: fluorescence of the colonies: —
[8]
  Growth: NG
  Col.: color of the colonies: —
[8]; UV lamp at 365 nm
  Fluo.: fluorescence of the colonies: —
[9]
  Growth: NG
  Col.: color of the colonies: —
[9]; UV lamp at 365 nm
  Fluo.: fluorescence of the colonies: —
[10]
  Growth: 1
[10]; UV lamp at 365 nm
  Fluo.: fluorescence of the colonies: —
[10]; examined visually
  Col.: color of the colonies: Rust
[11]
  Growth: 2
[11]; UV lamp at 365 nm
  Fluo.: fluorescence of the colonies: —
[12]
  Growth: 1
[12]; UV lamp at 365 nm
  Fluo.: fluorescence of the colonies: —
[12]; examined visually
  Col.: color of the colonies: Rust
[13]
  Growth: 0.5
  Col.: color of the colonies: —
[13]; UV lamp at 365 nm
  Fluo.: fluorescence of the colonies: —
[14]
  Growth: 1
[14]; UV lamp at 365 nm
  Fluo.: fluorescence of the colonies: —
[15]
  Growth: 2
  Col.: color of the colonies: Rust
[16]
  Growth: 2
[17]
  Growth: 2
